Assay results from patent publication US9932314B2, “Pyrazole compounds and their use as T-type calcium channel blockers” (IDORSIA PHARMACEUTICALS LTD, priority 2015, dated 2018).

target: T1, voltage-dependent T-type calcium channel subunit alpha-1G (Cav3.2) (Homo sapiens, UniProt O95180); experiment: FLIPR calcium flux assay, HEK293 cells recombinantly expressing Cav3.2; assay type: cell-based; settings: Cav3.2-channel, Fluo-4-AM, 3 min incubation, stimulation with 10 mM CaCl2
T1 construct: expressed in transfected cells; host or cells: HEK293
T1 sequence (O95180 whole entry): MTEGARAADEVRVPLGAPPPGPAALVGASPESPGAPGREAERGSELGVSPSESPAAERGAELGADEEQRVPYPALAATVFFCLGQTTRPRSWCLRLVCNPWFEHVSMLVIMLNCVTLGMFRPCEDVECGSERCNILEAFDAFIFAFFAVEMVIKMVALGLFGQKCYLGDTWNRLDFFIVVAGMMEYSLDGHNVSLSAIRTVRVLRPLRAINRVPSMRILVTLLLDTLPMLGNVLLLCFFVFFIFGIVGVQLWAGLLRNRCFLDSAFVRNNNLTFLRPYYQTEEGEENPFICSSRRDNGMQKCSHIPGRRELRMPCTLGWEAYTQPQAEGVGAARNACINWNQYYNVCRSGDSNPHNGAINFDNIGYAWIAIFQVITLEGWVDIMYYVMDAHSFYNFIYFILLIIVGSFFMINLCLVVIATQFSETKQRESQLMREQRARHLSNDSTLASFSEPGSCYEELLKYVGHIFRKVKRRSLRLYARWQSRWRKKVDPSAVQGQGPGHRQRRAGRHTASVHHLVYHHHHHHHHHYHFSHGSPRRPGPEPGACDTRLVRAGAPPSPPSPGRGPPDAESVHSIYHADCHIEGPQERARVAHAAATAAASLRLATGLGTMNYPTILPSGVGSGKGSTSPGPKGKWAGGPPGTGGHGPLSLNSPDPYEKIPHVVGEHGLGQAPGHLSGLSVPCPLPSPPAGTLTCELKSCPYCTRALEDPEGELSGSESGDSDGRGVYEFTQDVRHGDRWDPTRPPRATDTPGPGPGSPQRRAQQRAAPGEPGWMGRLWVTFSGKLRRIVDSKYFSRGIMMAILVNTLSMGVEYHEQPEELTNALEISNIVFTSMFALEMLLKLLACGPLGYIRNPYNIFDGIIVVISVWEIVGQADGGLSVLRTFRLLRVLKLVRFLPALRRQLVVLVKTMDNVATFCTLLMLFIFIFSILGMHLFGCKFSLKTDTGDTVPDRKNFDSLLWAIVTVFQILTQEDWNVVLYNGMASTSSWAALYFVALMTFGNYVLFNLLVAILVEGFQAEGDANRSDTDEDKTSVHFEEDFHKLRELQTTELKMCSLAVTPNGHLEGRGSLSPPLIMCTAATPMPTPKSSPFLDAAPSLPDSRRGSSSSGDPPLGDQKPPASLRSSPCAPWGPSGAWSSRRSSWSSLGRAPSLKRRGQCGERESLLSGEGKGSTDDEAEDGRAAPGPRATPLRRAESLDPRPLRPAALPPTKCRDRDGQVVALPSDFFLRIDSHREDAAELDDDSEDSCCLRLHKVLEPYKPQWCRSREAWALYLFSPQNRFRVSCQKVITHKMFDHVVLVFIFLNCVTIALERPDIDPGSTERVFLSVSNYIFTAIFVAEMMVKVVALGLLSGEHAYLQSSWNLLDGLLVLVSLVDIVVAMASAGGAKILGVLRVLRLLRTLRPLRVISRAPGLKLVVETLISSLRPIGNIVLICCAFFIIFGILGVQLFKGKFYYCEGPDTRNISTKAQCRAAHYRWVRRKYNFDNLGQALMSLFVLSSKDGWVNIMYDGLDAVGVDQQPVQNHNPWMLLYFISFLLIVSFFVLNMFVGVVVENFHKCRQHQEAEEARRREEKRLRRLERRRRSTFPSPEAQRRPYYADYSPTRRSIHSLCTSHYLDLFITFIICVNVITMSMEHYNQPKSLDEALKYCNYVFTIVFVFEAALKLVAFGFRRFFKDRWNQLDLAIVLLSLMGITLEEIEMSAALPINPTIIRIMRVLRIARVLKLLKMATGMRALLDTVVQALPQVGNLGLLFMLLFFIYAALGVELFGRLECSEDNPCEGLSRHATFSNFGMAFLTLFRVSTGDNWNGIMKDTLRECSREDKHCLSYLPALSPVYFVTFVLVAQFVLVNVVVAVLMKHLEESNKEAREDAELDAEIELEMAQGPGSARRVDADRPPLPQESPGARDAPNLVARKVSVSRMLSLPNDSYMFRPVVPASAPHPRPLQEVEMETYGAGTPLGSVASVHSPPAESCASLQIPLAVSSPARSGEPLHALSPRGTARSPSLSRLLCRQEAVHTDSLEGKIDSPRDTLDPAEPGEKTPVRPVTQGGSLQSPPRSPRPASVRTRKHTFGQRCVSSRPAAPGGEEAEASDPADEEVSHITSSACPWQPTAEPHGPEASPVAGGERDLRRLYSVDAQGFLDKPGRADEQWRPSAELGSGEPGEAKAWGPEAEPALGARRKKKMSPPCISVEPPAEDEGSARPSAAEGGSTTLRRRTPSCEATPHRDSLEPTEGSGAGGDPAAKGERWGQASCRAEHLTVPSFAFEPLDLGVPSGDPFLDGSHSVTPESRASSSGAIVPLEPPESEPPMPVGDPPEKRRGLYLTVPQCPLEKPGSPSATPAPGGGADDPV
Summary of the method: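 Calcium influx was triggered by adding CaCl2 to 10 mM final, 3 min after compounds in tetraethylammonium-based buffer, pH 7.2, reached Fluo-4-AM-loaded recombinant HEK293 cells. The integrated kinetic fluorescence signal per concentration gave concentration-response curves by non-linear sigmoidal regression.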

IC50 [nM] | Compound
44 | O=C(Cc1ccc(N2CC(F)(F)C2)nc1)Nc1ccn(Cc2ccc(F)cc2)n1 [Example 145, 2-[6-(3,3-Difluoro-azetidin-1-yl)-pyridin-3-yl]-N-[1-(4-fluoro-benzyl)-1H-pyrazol-3-yl]-acetamide]
16 | N#Cc1ccc(Cn2ccc(NC(=O)Cc3ccc(N4CC[C@@H](F)C4)cc3)n2)cc1 [Example 69, N-[1-(4-Cyano-benzyl)-1H-pyrazol-3-yl]-2-[4-((R)-3-fluoro-pyrrolidin-1-yl)-phenyl]-acetamide]
8.6 | Cc1cc(Cn2ccc(NC(=O)Cc3ccc(N(C)C)cc3)n2)ccc1F [Example 30, 2-(4-Dimethylamino-phenyl)-N-[1-(4-fluoro-3-methyl-benzyl)-1H-pyrazol-3-yl]-acetamide]
5.2 | O=C(Cc1ccc(N2CC[C@H](F)C2)cc1)Nc1ccn(Cc2ccc(F)cc2)n1 [Example 75, N-[1-(4-Fluoro-benzyl)-1H-pyrazol-3-yl]-2-[4-((S)-3-fluoro-pyrrolidin-1-yl)-phenyl]-acetamide]
378 | CC1(c2ccc(CC(=O)Nc3ccn(Cc4ccc(C#N)cn4)n3)cc2)COC1 [Example 318, N-[1-(5-Cyano-pyridin-2-ylmethyl)-1H-pyrazol-3-yl]-2-[4-(3-methyl-oxetan-3-yl)-phenyl]-acetamide]
7.6 | Cc1ccc(Cn2ccc(NC(=O)Cc3ccc(N(C)C)cc3)n2)cc1F [Example 32, 2-(4-Dimethylamino-phenyl)-N-[1-(3-fluoro-4-methyl-benzyl)-1H-pyrazol-3-yl]-acetamide]
1260 | COC(C)c1ccc(CC(=O)Nc2ccn(Cc3ccc(C#N)cn3)n2)cc1 (racemic) [Example 203, rac-N-[1-(5-Cyano-pyridin-2-ylmethyl)-1H-pyrazol-3-yl]-2-[4-(1-methoxy-ethyl)-phenyl]acetamide]
128 | CCN(C)c1ccc(CC(=O)Nc2ccn(Cc3ccc(OC)cc3)n2)cc1 [Example 129, 2-[4-(Ethyl-methyl-amino)-phenyl]-N-[1-(4-methoxy-benzyl)-1H-pyrazol-3-yl]-acetamide]
9.2 | O=C(Cc1ccc(N2CC(F)(F)C2)cc1)Nc1ccn(Cc2ccc(F)cc2)n1 [Example 49, 2-[4-(3,3-Difluoro-azetidin-1-yl)-phenyl]-N-[1-(4-fluoro-benzyl)-H-pyrazol-3-yl]-acetamide]
5.4 | CC(C)c1ccc(CC(=O)Nc2ccn(Cc3ccc(C#N)cc3)n2)cc1 [Example 11, N-[1-(4-Cyano-benzyl)-1H-pyrazol-3-yl]-2-(4-isopropyl-phenyl)-acetamide]
4.8 | O=C(Cc1ccc(N2CC[C@@H](F)C2)cc1)Nc1ccn(Cc2ccc(F)c(F)c2)n1 [Example 68, N-[1-(3,4-Difluoro-benzyl)-1H-pyrazol-3-yl]-2-[4-((R)-3-fluoro-pyrrolidin-1-yl)-phenyl]-acetamide]
14 | N#Cc1ccc(Cn2ccc(NC(=O)Cc3ccc(N4CC[C@H](F)C4)cc3)n2)cc1 [Example 74, N-[1-(4-Cyano-benzyl)-1H-pyrazol-3-yl]-2-[4-((S)-3-fluoro-pyrrolidin-1-yl)-phenyl]-acetamide]
15 | N#Cc1ccc(Cn2ccc(NC(=O)Cc3ccc(C4(C(F)(F)F)CC4)cc3)n2)cc1 [Example 277, N-[1-(4-Cyano-benzyl)-1H-pyrazol-3-yl]-2-[4-(1-trifluoromethyl-cyclopropyl)-phenyl]-acetamide]

More lines, now with the values behind:

Compound | IC50 [nM]
Cn1ncc2ccc(CC(=O)Nc3ccn(Cc4ccc(C#N)c(F)c4)n3)cc21 [Example 291, N-[1-(4-Cyano-3-fluoro-benzyl)-1H-pyrazol-3-yl]-2-(1-methyl-1H-indazol-6-yl)-acetamide] | 80
CCN(CC)c1ccc(CC(=O)Nc2ccn(Cc3ccc(C#N)cc3)n2)cn1 [Example 189, N-[1-(4-Cyano-benzyl)-1H-pyrazol-3-yl]-2-(6-diethylamino-pyridin-3-yl)-acetamide] | 88
Cc1cc(CC(=O)Nc2ccn(Cc3ccc(F)c(C#N)n3)n2)ccc1OCCC(F)(F)F [Example 420, N-[1-(6-Cyano-5-fluoro-pyridin-2-ylmethyl)-1H-pyrazol-3-yl]-2-[3-methyl-4-(3,3,3-trifluoro-propoxy)-phenyl]-acetamide] | 8.7
Cc1cc(CC(=O)Nc2ccn(Cc3ccc(F)c(C#N)c3)n2)ccc1OCC(F)(F)F [Example 343, N-[1-(3-Cyano-4-fluoro-benzyl)-1H-pyrazol-3-yl]-2-[3-methyl-4-(2,2,2-trifluoro-ethoxy)-phenyl]-acetamide] | 4.5
N#Cc1ccc(Cn2ccc(NC(=O)Cc3ccc(N4CC[C@@H](F)C4)nc3)n2)nc1 [Example 138, N-[1-(5-Cyano-pyridin-2-ylmethyl)-1H-pyrazol-3-yl]-2-[6-((R)-3-fluoro-pyrrolidin-1-yl)-pyridin-3-yl]-acetamide] | 756
Cn1cc(C#N)c2cc(CC(=O)Nc3ccn(Cc4ccc(C#N)cn4)n3)ccc21 [Example 325, 2-(3-Cyano-1-methyl-1H-indol-5-yl)-N-[1-(5-cyano-pyridin-2-ylmethyl)-1H-pyrazol-3-yl]-acetamide] | 893
N#Cc1ccc(Cn2ccc(NC(=O)Cc3ccc(C4CC(F)(F)C4)cc3)n2)cc1F [Example 288, N-[1-(4-Cyano-3-fluoro-benzyl)-1H-pyrazol-3-yl]-2-[4-(3,3-difluoro-cyclobutyl)-phenyl]-acetamide] | 4.7
COc1ccc(Cn2ccc(NC(=O)Cc3ccc(N4CCC4)cc3)n2)cc1 [Example 55, 2-(4-Azetidin-1-yl-phenyl)-N-[1-(4-methoxy-benzyl)-1H-pyrazol-3-yl]-acetamide] | 33
N#Cc1ccc(Cn2ccc(NC(=O)Cc3ccc(C4(F)COC4)cc3)n2)cc1 [Example 250, N-[1-(4-Cyano-benzyl)-1H-pyrazol-3-yl]-2-[4-(3-fluoro-oxetan-3-yl)-phenyl]-acetamide] | 127
CC1(C)COc2ccc(CC(=O)Nc3ccn(Cc4ccc(C#N)cn4)n3)cc21 [Example 379, N-[1-(5-Cyano-pyridin-2-ylmethyl)-1H-pyrazol-3-yl]-2-(3,3-dimethyl-2,3-dihydro-benzofuran-5-yl)-acetamide] | 658
N#Cc1ccc(Cn2ccc(NC(=O)Cc3ccc(N4CC[C@@H](F)C4)nc3)n2)cc1 [Example 140, N-[1-(4-Cyano-benzyl)-1H-pyrazol-3-yl]-2-[6-((R)-3-fluoro-pyrrolidin-1-yl)-pyridin-3-yl]-acetamide] | 176
Cc1ccc(Cn2ccc(NC(=O)Cc3ccc(C4(C(F)(F)F)CC4)cc3)n2)nc1C#N [Example 372, N-[1-(6-Cyano-5-methyl-pyridin-2-ylmethyl)-1H-pyrazol-3-yl]-2-[4-(1-trifluoromethyl-cyclopropyl)-phenyl]-acetamide] | 38
Cn1ccc2ccc(CC(=O)Nc3ccn(Cc4ccc(C#N)c(F)c4)n3)cc21 [Example 293, N-[1-(4-Cyano-3-fluoro-benzyl)-1H-pyrazol-3-yl]-2-(1-methyl-1H-indol-6-yl)-acetamide] | 6.6
N#Cc1ccc(Cn2ccc(NC(=O)Cc3ccc(N4CC[C@H](F)C4)cc3)n2)nc1 [Example 90, N-[1-(5-Cyano-pyridin-2-ylmethyl)-1H-pyrazol-3-yl]-2-[4-((S)-3-fluoro-pyrrolidin-1-yl)-phenyl]-acetamide] | 75
O=C(Cc1ccc2cccnc2c1)Nc1ccn(Cc2ccc(F)c(F)c2)n1 [Example 206, N-[1-(3,4-Difluoro-benzyl)-1H-pyrazol-3-yl]-2-quinolin-7-yl-acetamide] | 50
CCN(C)c1ccc(CC(=O)Nc2ccn(Cc3ccc(C#N)cn3)n2)cn1 [Example 171, N-[1-(5-Cyano-pyridin-2-ylmethyl)-1H-pyrazol-3-yl]-2-[6-(ethyl-methyl-amino)-pyridin-3-yl]-acetamide] | 980
O=C(Cc1ccc(C2CC2)nc1)Nc1ccn(Cc2ccc(Cl)c(F)c2)n1 [Example 193, N-[1-(4-Chloro-3-fluoro-benzyl)-1H-pyrazol-3-yl]-2-(6-cyclopropyl-pyridin-3-yl)-acetamide] | 78
CN(C)c1ccc(CC(=O)Nc2ccn(Cc3ccc(C#N)cc3)n2)cn1 [Example 15, N-[1-(4-Cyano-benzyl)-1H-pyrazol-3-yl]-2-(6-dimethylamino-pyridin-3-yl)-acetamide] | 374
Cn1ncc2cc(CC(=O)Nc3ccn(Cc4ccc(C#N)c(F)c4)n3)ccc21 [Example 255, N-[1-(4-Cyano-3-fluoro-benzyl)-1H-pyrazol-3-yl]-2-(1-methyl-1H-indazol-5-yl)-acetamide] | 52
N#Cc1ccc(Cn2ccc(NC(=O)Cc3ccc(N4CC[C@H](F)C4)nc3)n2)cc1 [Example 154, N-[1-(4-Cyano-benzyl)-1H-pyrazol-3-yl]-2-[6-((S)-3-fluoro-pyrrolidin-1-yl)-pyridin-3-yl]-acetamide] | 78
N#Cc1ccc(Cn2ccc(NC(=O)Cc3ccc(C4(C(F)(F)F)CC4)cc3)n2)cc1F [Example 265, N-[1-(4-Cyano-3-fluoro-benzyl)-1H-pyrazol-3-yl]-2-[4-(1-trifluoromethyl-cyclopropyl)-phenyl]-acetamide] | 15
CN(C)c1ccc(CC(=O)Nc2ccn(Cc3cc(F)c(F)c(F)c3)n2)cn1 [Example 41, 2-(6-Dimethylamino-pyridin-3-yl)-N-[1-(3,4,5-trifluoro-benzyl)-1H-pyrazol-3-yl]-acetamide] | 38
Cc1cn(C)c2cc(CC(=O)Nc3ccn(Cc4ccc(F)c(C#N)c4)n3)ccc12 [Example 330, N-[1-(3-Cyano-4-fluoro-benzyl)-1H-pyrazol-3-yl]-2-(1,3-dimethyl-1H-indol-6-yl)-acetamide] | 4.8
N#Cc1c(F)cc(Cn2ccc(NC(=O)Cc3ccc(OCC4COC4)cc3)n2)cc1F [Example 360, N-[1-(4-Cyano-3,5-difluoro-benzyl)-1H-pyrazol-3-yl]-2-[4-(oxetan-3-ylmethoxy)-phenyl]-acetamide] | 360
Cn1ncc2cc(CC(=O)Nc3ccn(Cc4cc(F)c(C#N)c(F)c4)n3)ccc21 [Example 344, N-[1-(4-Cyano-3,5-difluoro-benzyl)-1H-pyrazol-3-yl]-2-(1-methyl-1H-indazol-5-yl)-acetamide] | 52
